According to patent US9980943B2, “Methods of treating muscular dystrophy” (BOARD OF REGENTS OF THE NEVADA SYSTEM OF HIGHER EDUCATION, …, priority 2013, dated 2018):

Assays:
Type in all cases: cell-based, mouse
[1] = tested on: α7 integrin (LacZ reporter in α7βgal+/− myoblasts); test: Myoblast α7+/LacZ integrin FDG assay (Burkin assay in myoblasts, 96-well); details: α7+/LacZ myoblasts, 96-well
[2] = tested on: β-galactosidase in CMV-LacZ C2C12 myotubes; test: CMV-LacZ secondary screen in C2C12 myotubes (β-Gal stabilizing assay); details: C2C12 CMV-LacZ myotubes, fold relative to DMSO
Summary of the method: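 CMV-LacZ C2C12 line (clonal, FDG-screened); myoblasts/myotubes dosed 0.5–40 μM (0.5, 1, 5, 10, 20, 40 μM); n=2 per point; β-gal stabilization read-out.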

[3] = tested on: α7 integrin (LacZ reporter in α7+/LacZ myotubes); test: Myotube α7 integrin FDG assay (Burkin assay in myotubes, 96-well); details: myotubes
[4] = tested on: β-galactosidase in CMV-LacZ C2C12 myoblasts; test: CMV-LacZ secondary screen in C2C12 myoblasts (β-Gal stabilizing assay); details: CMV-LacZ C2C12 myoblasts
Summary of the method: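 C2C12 myoblasts stably carrying a linearized CMV-driven LacZ construct, clone chosen by β-gal level in the myoblast FDG assay. Compounds tested in 96-well dose-response at 0.5, 1, 5, 10, 20 and 40 μM, N=2 replicates per point, to detect β-gal stabilization.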

| Structure (SMILES) | Burkin Assay in Myoblasts, signal relative to DMSO ([1]; 0.5 uM) | Burkin Assay in Myoblasts, signal relative to DMSO ([1]; 1 uM) | Burkin Assay in Myoblasts, signal relative to DMSO ([1]; 5 uM) | Burkin Assay in Myoblasts, signal relative to DMSO ([1]; 10 uM) | Burkin Assay in Myoblasts, signal relative to DMSO ([1]; 20 uM) | Burkin Assay in Myoblasts, signal relative to DMSO ([1]; 40 uM) | CMV-LACZ in Myotubes, signal relative to DMSO ([2]; 0.5 uM) | CMV-LACZ in Myotubes, signal relative to DMSO ([2]; 1 uM) | CMV-LACZ in Myotubes, signal relative to DMSO ([2]; 5 uM) | CMV-LACZ in Myotubes, signal relative to DMSO ([2]; 10 uM) | CMV-LACZ in Myotubes, signal relative to DMSO ([2]; 20 uM) | CMV-LACZ in Myotubes, signal relative to DMSO ([2]; 40 uM) | Burkin Assay in Myotubes, α7 integrin LacZ reporter signal relative to DMSO ([3]; 0.5 uM) | Burkin Assay in Myotubes, α7 integrin LacZ reporter signal relative to DMSO ([3]; 1 uM) | Burkin Assay in Myotubes, α7 integrin LacZ reporter signal relative to DMSO ([3]; 5 uM) | Burkin Assay in Myotubes, α7 integrin LacZ reporter signal relative to DMSO ([3]; 10 uM) | Burkin Assay in Myotubes, α7 integrin LacZ reporter signal relative to DMSO ([3]; 20 uM) | Burkin Assay in Myotubes, α7 integrin LacZ reporter signal relative to DMSO ([3]; 40 uM) | CMV-LACZ in Myoblasts (β-galactosidase activity relative to DMSO) ([4]; 0.5 uM) | CMV-LACZ in Myoblasts (β-galactosidase activity relative to DMSO) ([4]; 1 uM) | other results |
| --- | --- | --- | --- | --- | --- | --- | --- | --- | --- | --- | --- | --- | --- | --- | --- | --- | --- | --- | --- | --- | --- |
| CCOC(=O)c1cc(-c2cccs2)nc2c1c(C)nn2-c1ccccn1 [MLS001006516-01] | 1.097 | 1.134 | 0.8796 | 0.7932 | 0.6928 | 0.4802 | 0.9581 | 0.9257 | 0.9283 | 0.8542 | 0.9032 | 0.9484 | 0.9261 | 0.8714 | 0.9257 | 0.9085 | 0.7127 | 0.7127 | 1.0038 | 0.8858 | CMV-LACZ in Myoblasts (β-galactosidase activity relative to DMSO) ([4]; 5 uM): 0.9829; CMV-LACZ in Myoblasts (β-galactosidase activity relative to DMSO) ([4]; 10 uM): 0.9076; CMV-LACZ in Myoblasts (β-galactosidase activity relative to DMSO) ([4]; 20 uM): 0.4956; CMV-LACZ in Myoblasts (β-galactosidase activity relative to DMSO) ([4]; 40 uM): 0.6589 |
| COc1ccccc1C(=O)OCc1ccc2sc(C)nc2c1 [MLS001006798-01] | 1.191 | 0.9282 | 1.133 | 1.008 | 1.118 | 1.016 | 1.0419 | 0.9648 | 1.2236 | 1.0267 | 0.9953 | 1.0976 | 0.9345 | 1.042 | 1.06 | 0.8906 | 0.9746 | 0.8886 | 0.8334 | 1.0326 | CMV-LACZ in Myoblasts (β-galactosidase activity relative to DMSO) ([4]; 5 uM): 1.1509; CMV-LACZ in Myoblasts (β-galactosidase activity relative to DMSO) ([4]; 10 uM): 1.0189; CMV-LACZ in Myoblasts (β-galactosidase activity relative to DMSO) ([4]; 20 uM): 0.9622; CMV-LACZ in Myoblasts (β-galactosidase activity relative to DMSO) ([4]; 40 uM): 0.8263 |
| CCCC(=O)OCC(=O)c1[nH]c(C)c(C(C)=O)c1C [MLS001007892-01] | 1.127 | 1.037 | 1.016 | 1.23 | 0.7225 | 0.4983 | 1.1673 | 0.9291 | 1.0066 | 0.9543 | 1.2170 | 1.0540 | 0.9046 | 1.013 | 0.9742 | 1.075 | 0.8343 | 0.9888 | 0.9338 | 0.8108 | CMV-LACZ in Myoblasts (β-galactosidase activity relative to DMSO) ([4]; 5 uM): 1.0511; CMV-LACZ in Myoblasts (β-galactosidase activity relative to DMSO) ([4]; 10 uM): 1.1495; CMV-LACZ in Myoblasts (β-galactosidase activity relative to DMSO) ([4]; 20 uM): 0.6390; CMV-LACZ in Myoblasts (β-galactosidase activity relative to DMSO) ([4]; 40 uM): 0.4953 |
